Legend:
[1] = tested on: metastatic melanoma; conditions: advanced melanoma; Finn L et al., BMC Medicine 2012; cited from earlier work
[2] = tested on: stage IV cutaneous metastatic malignant melanoma; test: Phase 3 study of Nab-paclitaxel versus dacarbazine in chemotherapy-naive patients, efficacy; assay type: in vivo, human
Text: Chemotherapy-naïve patients with stage IV cutaneous metastatic malignant melanoma were enrolled. The patients had Eastern Cooperative Oncology Group (ECOG) PS 0-1, measurable disease, and lactate dehydrogenase (LDH) levels ≦2.0× Upper Limit of Normal (ULN), and had no current brain metastases.
The primary efficacy endpoint was progression-free survival (“PFS”) based on a blinded radiology assessment (according to Response Evaluation Criteria in Solid Tumors (“RECIST”) v1.0). The secondary efficacy endpoint was overall survival (“OS”). Other endpoints included objective response rate (“ORR”), disease control rate (“DCR”), and safety/tolerability.

[3] = Phase 3 study of Nab-paclitaxel versus dacarbazine, treatment-related adverse events; assay type: in vivo, human
[4] = Grade ≧3 treatment-related adverse events

For “Ipilmumab: anti-CTLA-4 antibody, FDA approved 2011 for advanced melanoma”, the “improvement of median survival time” value [1] is given as “two”.
In the case of `CN(C)/N=N/c1[nH]cnc1C(N)=O` [Dacarbazine, dacarbazine], the “Median OS (interim)” value ([2]; BRAF V600E Mutation subgroup) was 11.2 months, the “Median PFS” value ([2]; BRAF V600E Mutation subgroup) was 3.5 months and the “Median OS (interim)” value ([2]; BRAF Wild Type subgroup) was 11.1 months. For the same compound, the “Median PFS” value ([2]; BRAF Wild Type subgroup) was 2.5 months, the “Median OS (interim)” value ([2]; BRAF status Unknown subgroup) was 9.9 months and the “Median PFS” value ([2]; BRAF status Unknown subgroup) was 2.2 months. The “progression free survival (PFS) by independent radiology review” value ([2]; all patients, Nab-paclitaxel 150 mg/m^2 iv days 1, 8, 15 of 28-day cycle vs dacarbazine 1000 mg/m^2 iv day 1 of 21-day cycle, RECIST v1.0, P=0.044) was 2.5 months, the “Median OS, planned interim analysis” value ([2]; all patients, at time of PFS analysis, 64% of patients had an event) was 10.7 months and the “Best Response: Not Evaluable” value ([2]; blinded radiology assessment) was 25%. For the same compound, the “Best Response: PD” value ([2]; blinded radiology assessment) was 48%, the “Best Response: SD” value ([2]; blinded radiology assessment) was 16% and the DCR ([2]; blinded radiology assessment) was 27%. For the same compound, the ORR ([2]; blinded radiology assessment) was 11%, the “PR (listed under DCR)” value ([2]; blinded radiology assessment) was 11% and the “Best Response: PR” value ([2]; blinded radiology assessment, confirmed) was 11%. The Alopecia ([3]; Grade ≧3 TRAE) was 0%, the Anemia ([3]; Grade ≧3 TRAE) was 5% and the Fatigue ([3]; Grade ≧3 TRAE) was 2%. It also gave a Leukopenia ([3]; Grade ≧3 TRAE) of 7%, a Lymphocytopenia ([3]; Grade ≧3 TRAE) of 11% and a Neutropenia ([3]; Grade ≧3 TRAE) of 10%. For the same compound, the “Peripheral Neuropathy” value ([3]; Grade ≧3 TRAE) was 0%, the Thrombocytopenia ([3]; Grade ≧3 TRAE) was 6% and the “Patients with at least 1 TRAE” value [3, 4] was 28%. For the same compound, the “Patients with at least 1 serious TRAE” value [3, 4] was 7%.
For `CCCS(=O)(=O)Nc1ccc(F)c(C(=O)c2c[nH]c3ncc(-c4ccc(Cl)cc4)cc23)c1F` [vemurafenib], the toxicity [1] is given as “low toxicity”.

From US9149455B2, “Methods of treating melanoma” (Abraxis BioScience, LLC, priority 2012, dated 2015)
